Values quoted from earlier work as cited in US8865213B2, “Modified release pharmaceutical compositions” (USV Limited, priority 2009, dated 2014).

Solubility in ethanol (ethanol): soluble | Solubility in water (water): practically insoluble
SMILES: COC(=O)C1=C(C)NC(C)=C(C(=O)OCC(C)C)C1c1ccccc1[N+](=O)[O-] (centres unmarked) [Nisoldipine, 3,5-pyridinedicarboxylic acid, 1,4-dihydro-2,6-dimethyl-4-(2-nitrophenyl)-, methyl 2-methyl-propyl ester]
